Source: US20220002314A1 (priority 2018, published 2022)
pKi: −log10 of the molar value. Read-outs that look alike come from different tables or passages of the source.

Key:
[1] = molecular target: Human α2δ-1 subunit of Cav2.2 calcium channel (Homo sapiens, UniProt P54289); assay: biochemical; format: binding
Human μ-opioid receptor = Human μ-opioid receptor (Homo sapiens, UniProt P35372); assay: biochemical; format: binding
Sequence of Human μ-opioid receptor (P35372 whole entry): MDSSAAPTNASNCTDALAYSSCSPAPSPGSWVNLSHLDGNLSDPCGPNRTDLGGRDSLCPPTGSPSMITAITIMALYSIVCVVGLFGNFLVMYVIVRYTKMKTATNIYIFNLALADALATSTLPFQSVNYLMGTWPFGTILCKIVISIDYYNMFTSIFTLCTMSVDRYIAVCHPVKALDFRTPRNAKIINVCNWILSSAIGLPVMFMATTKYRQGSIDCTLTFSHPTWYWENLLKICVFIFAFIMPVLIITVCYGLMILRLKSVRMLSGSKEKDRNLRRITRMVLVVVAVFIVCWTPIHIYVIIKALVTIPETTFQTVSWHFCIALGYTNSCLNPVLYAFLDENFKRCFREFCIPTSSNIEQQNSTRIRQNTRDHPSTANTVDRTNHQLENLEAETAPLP

Sequence of Human α2δ-1 subunit of Cav2.2 calcium channel (P54289 25-1103): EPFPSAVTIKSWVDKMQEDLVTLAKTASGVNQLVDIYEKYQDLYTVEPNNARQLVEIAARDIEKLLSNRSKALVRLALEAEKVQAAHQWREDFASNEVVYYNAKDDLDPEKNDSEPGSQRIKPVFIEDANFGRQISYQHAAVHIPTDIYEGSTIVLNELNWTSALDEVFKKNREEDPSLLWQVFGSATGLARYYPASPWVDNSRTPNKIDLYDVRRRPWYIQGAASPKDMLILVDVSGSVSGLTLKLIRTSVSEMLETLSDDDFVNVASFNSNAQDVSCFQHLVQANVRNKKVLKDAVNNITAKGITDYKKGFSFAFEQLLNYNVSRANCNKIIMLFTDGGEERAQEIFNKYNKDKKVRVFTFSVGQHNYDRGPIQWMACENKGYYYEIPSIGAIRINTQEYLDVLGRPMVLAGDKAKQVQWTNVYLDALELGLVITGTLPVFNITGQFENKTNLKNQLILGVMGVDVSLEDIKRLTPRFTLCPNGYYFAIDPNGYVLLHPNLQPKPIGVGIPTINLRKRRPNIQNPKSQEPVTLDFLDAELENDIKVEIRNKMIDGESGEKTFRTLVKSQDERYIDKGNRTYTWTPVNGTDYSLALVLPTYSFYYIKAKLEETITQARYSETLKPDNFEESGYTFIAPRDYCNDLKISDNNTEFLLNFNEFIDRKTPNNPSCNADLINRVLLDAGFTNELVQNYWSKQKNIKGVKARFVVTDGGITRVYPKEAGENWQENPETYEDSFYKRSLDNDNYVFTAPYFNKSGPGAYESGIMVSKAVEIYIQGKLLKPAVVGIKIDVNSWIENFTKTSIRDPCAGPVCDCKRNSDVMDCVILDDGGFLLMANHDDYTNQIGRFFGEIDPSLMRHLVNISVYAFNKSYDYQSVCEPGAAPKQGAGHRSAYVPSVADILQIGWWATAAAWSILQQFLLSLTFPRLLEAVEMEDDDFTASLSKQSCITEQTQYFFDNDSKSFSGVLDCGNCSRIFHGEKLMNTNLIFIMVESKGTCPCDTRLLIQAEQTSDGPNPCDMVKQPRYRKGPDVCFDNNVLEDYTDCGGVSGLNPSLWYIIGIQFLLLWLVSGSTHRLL

pKi ([1]; read-out: α2δ-1 binding) | pKi (Human μ-opioid receptor; read-out: μ-binding) | SMILES | pKi [1] | pKi (Human μ-opioid receptor)
 |  | CCC[C@H](c1nc2ccc(Br)cc2c(=O)n1CC)[C@H]1CCNCC1(F)F (single isomer, unassigned) [Example 189] | > 6.30 | < 6.30
 |  | CCCC(c1nc2ccc(Br)cc2c(=O)n1CC)N1C[C@@H](C)N[C@@H](C)C1 (stereo partly drawn) [Example 1, 6-Bromo-2-(1-((3S,5R)-3,5-dimethylpiperazin-1-yl)butyl)-3-ethylquinazolin-4(3H)-one] | > 6.30 | < 6.30
 |  | CCCC(c1nc2ccccc2c(=O)n1C)N1C[C@@H](C)N[C@@H](C)C1 (stereo partly drawn) [Example 2, 2-(1-((3S,5R)-3,5-dimethylpiperazin-1-yl)butyl)-3-methylquinazolin-4(3H)-one] | > 6.30 | < 6.30
 |  | CCCC(c1nc2cc(C)ccc2c(=O)n1CC)N1C[C@@H](C)N[C@@H](C)C1 (stereo partly drawn) [Example 4, 2-(1-((3S,5R)-3,5-dimethylpiperazin-1-yl)butyl)-3-ethyl-7-methylquinazolin-4(3H)-one] | > 6.30 | < 6.30
5.30 to 6.30 | < 6.30 | CCCC(c1nc2c(Br)c(OC)ccc2c(=O)n1CC)N1C[C@@H](C)N[C@@H](C)C1 (stereo partly drawn) [Example 5, 8-bromo-2-(1-((3S,5R)-3,5-dimethylpiperazin-1-yl)butyl)-3-ethyl-7-methoxyquinazolin-4(3H)-one] |  | 
 |  | CCCC(c1nc2cc(OC)ccc2c(=O)n1CC)N1C[C@@H](C)N[C@@H](C)C1 (stereo partly drawn) [Example 6, 2-(1-((3S,5R)-3,5-dimethylpiperazin-1-yl)butyl)-3-ethyl-7-methoxyquinazolin-4(3H)-one] | > 6.30 | < 6.30
 |  | CCCC(c1nc2cc(C(=O)OC)ccc2c(=O)n1CC)N1C[C@@H](C)N[C@@H](C)C1 (stereo partly drawn) [Example 7, methyl 2-(1-((3S,5R)-3,5-dimethylpiperazin-1-yl)butyl)-3-ethyl-4-oxo-3,4-dihydroquinazoline-7-carboxylate] | > 6.30 | 6.30 to 7.00
 |  | CCCC(c1nc2cc(Br)ccc2c(=O)n1CC)N1C[C@@H](C)N[C@@H](C)C1 (stereo partly drawn) [Example 9, 7-bromo-2-(1-((3S,5R)-3,5-dimethylpiperazin-1-yl)butyl)-3-ethylquinazolin-4(3H)-one] | > 6.30 | < 6.30
 |  | CCCC(c1nc2cc(O)ccc2c(=O)n1C)N1C[C@@H](C)N[C@@H](C)C1 (stereo partly drawn) [Example 10, 2-(1-((3S,5R)-3,5-dimethylpiperazin-1-yl)butyl)-7-hydroxy-3-methylquinazolin-4(3H)-one] | > 6.30 | < 6.30
 |  | CCCC(c1nc2cc(F)ccc2c(=O)n1CC)N1C[C@@H](C)N[C@@H](C)C1 (stereo partly drawn) [Example 11, 2-(1-((3S,5R)-3,5-dimethylpiperazin-1-yl)butyl)-3-ethyl-7-fluoroquinazolin-4(3H)-one] | > 6.30 | < 6.30
 |  | CCCC(c1nc2ccc(O)cc2c(=O)n1CC)N1C[C@@H](C)N[C@@H](C)C1 (stereo partly drawn) [Example 12, 2-(1-((3S,5R)-3,5-dimethylpiperazin-1-yl)butyl)-3-ethyl-6-hydroxyquinazolin-4(3H)-one] | > 6.30 | < 6.30
 |  | CCCC(c1nc2cccc(Br)c2c(=O)n1CC)N1C[C@@H](C)N[C@@H](C)C1 (stereo partly drawn) [Example 14, 5-bromo-2-(1-((3S,5R)-3,5-dimethylpiperazin-1-yl)butyl)-3-ethylquinazolin-4(3H)-one] | > 6.30 | < 6.30
 |  | CCCC(c1nc2cccc(O)c2c(=O)n1CC)N1C[C@@H](C)N[C@@H](C)C1 (stereo partly drawn) [Example 15, 2-(1-((3S,5R)-3,5-dimethylpiperazin-1-yl)butyl)-3-ethyl-5-hydroxyquinazolin-4(3H)-one] | > 6.30 | < 6.30
 |  | CCCC(c1nc2ccc(Br)cc2c(=O)n1C)N1C[C@@H](C)N[C@@H](C)C1 (stereo partly drawn) [Example 16, 6-bromo-2-(1-((3S,5R)-3,5-dimethylpiperazin-1-yl)butyl)-3-methylquinazolin-4(3H)-one] | > 6.30 | < 6.30
 |  | CCCC(c1nc2cc(Br)ccc2c(=O)n1C)N1C[C@@H](C)N[C@@H](C)C1 (stereo partly drawn) [Example 17, 7-bromo-2-(1-((3S,5R)-3,5-dimethylpiperazin-1-yl)butyl)-3-methylquinazolin-4(3H)-one] | > 6.30 | < 6.30
 |  | CCCC(c1nc2cc(F)c(Br)cc2c(=O)n1CC)N1C[C@@H](C)N[C@@H](C)C1 (stereo partly drawn) [Example 18, 6-bromo-2-(1-((3S,5R)-3,5-dimethylpiperazin-1-yl)butyl)-3-ethyl-7-fluoroquinazolin-4(3H)-one] | > 6.30 | < 6.30
 |  | CCCC(c1nc2cc(C)c(Br)cc2c(=O)n1CC)N1C[C@@H](C)N[C@@H](C)C1 (stereo partly drawn) [Example 19, 6-bromo-2-(1-((3S,5R)-3,5-dimethylpiperazin-1-yl)butyl)-3-ethyl-7-methylquinazolin-4(3H)-one] | > 6.30 | < 6.30

pKi ([1]; read-out: α2δ-1 binding) | pKi (Human μ-opioid receptor; read-out: μ-binding) | SMILES | pKi [1] | pKi (Human μ-opioid receptor)
< 5.30 | < 6.30 | CCCC(c1nc2c(C)cc(Br)cc2c(=O)n1CC)N1C[C@@H](C)N[C@@H](C)C1 (stereo partly drawn) [Example 20, 6-bromo-2-(1-((3S,5R)-3,5-dimethylpiperazin-1-yl)butyl)-3-ethyl-8-methylquinazolin-4(3H)-one] |  | 
 |  | CCCC(c1nc2ccc(Br)c(C)c2c(=O)n1CC)N1C[C@@H](C)N[C@@H](C)C1 (stereo partly drawn) [Example 21, 6-bromo-2-(1-((3S,5R)-3,5-dimethylpiperazin-1-yl)butyl)-3-ethyl-5-methylquinazolin-4(3H)-one] | > 6.30 | < 6.30
 |  | CCCC(c1nc2ccc(Br)c(F)c2c(=O)n1CC)N1C[C@@H](C)N[C@@H](C)C1 (stereo partly drawn) [Example 22, 6-bromo-2-(1-((3S,5R)-3,5-dimethylpiperazin-1-yl)butyl)-3-ethyl-5-fluoroquinazolin-4(3H)-one] | > 6.30 | < 6.30
 |  | CCCC(c1nc2ccc(Br)c(Cl)c2c(=O)n1CC)N1C[C@@H](C)N[C@@H](C)C1 (stereo partly drawn) [Example 23, 6-bromo-5-chloro-2-(1-((3S,5R)-3,5-dimethylpiperazin-1-yl)butyl)-3-ethylquinazolin-4(3H)-one] | > 6.30 | < 6.30
 |  | CCCC(c1nc2ccc(NCC)cc2c(=O)n1CC)N1C[C@@H](C)N[C@@H](C)C1 (stereo partly drawn) [Example 24, 2-(1-((3S,5R)-3,5-dimethylpiperazin-1-yl)butyl)-3-ethyl-6-(ethylamino)quinazolin-4(3H)-one] | > 6.30 | < 6.30
 |  | CCCC(c1nc2cc(NCC)ccc2c(=O)n1CC)N1C[C@@H](C)N[C@@H](C)C1 (stereo partly drawn) [Example 25, 2-(1-((3S,5R)-3,5-dimethylpiperazin-1-yl)butyl)-3-ethyl-7-(ethylamino)quinazolin-4(3H)-one] | > 6.30 | < 6.30
5.30 to 6.30 | < 6.30 | CCCC(c1nc2cc(N(CC)C(=O)OC(C)(C)C)ccc2c(=O)n1CC)N1C[C@@H](C)N[C@@H](C)C1 (stereo partly drawn) [Example 26, tert-butyl (2-(1-((3S,5R)-3,5-dimethylpiperazin-1-yl)butyl)-3-ethyl-4-oxo-3,4-dihydroquinazolin-7-yl)(ethyl)carbamate] |  | 
 |  | CCCC(c1nc2cccnc2c(=O)n1CC)N1C[C@@H](C)N[C@@H](C)C1 (stereo partly drawn) [Example 27, 2-(1-((3S,5R)-3,5-dimethylpiperazin-1-yl)butyl)-3-ethylpyrido[3,2-d]pyrimidin-4(3H)-one] | > 6.30 | < 6.30
 |  | CCCC(c1nc2ncc(Br)cc2c(=O)n1CC)N1C[C@@H](C)N[C@@H](C)C1 (stereo partly drawn) [Example 28, 6-bromo-2-(1-((3S,5R)-3,5-dimethylpiperazin-1-yl)butyl)-3-ethylpyrido[2,3-d]pyrimidin-4(3H)-one] | > 6.30 | < 6.30
 |  | CCC[C@H](c1nc2ccc(Br)cc2c(=O)n1CC)N1C[C@@H](C)N[C@@H](C)C1 [Example 29, 6-bromo-2-((R)-1-((3S,5R)-3,5-dimethylpiperazin-1-yl)butyl)-3-ethylquinazolin-4(3H)-one] | > 6.30 | < 6.30
 |  | CCC[C@@H](c1nc2ccc(Br)cc2c(=O)n1CC)N1C[C@@H](C)N[C@@H](C)C1 [Example 30, 6-bromo-2-((S)-1-((3S,5R)-3,5-dimethylpiperazin-1-yl)butyl)-3-ethylquinazolin-4(3H)-one] | 5.30 to 6.30 | < 6.30
 |  | CCC[C@@H](c1nc2ccccc2c(=O)n1C)N1C[C@@H](C)N[C@@H](C)C1 [Example 31, 2-((S)-1-((3S,5R)-3,5-dimethylpiperazin-1-yl)butyl)-3-methylquinazolin-4(3H)-one] | 5.30 to 6.30 | < 6.30
 |  | CCC[C@H](c1nc2ccccc2c(=O)n1C)N1C[C@@H](C)N[C@@H](C)C1 [Example 32, 2-((R)-1-((3S,5R)-3,5-dimethylpiperazin-1-yl)butyl)-3-methylquinazolin-4(3H)-one] | > 6.30 | < 6.30
 |  | CCC[C@H](c1nc2ccccc2c(=O)n1CC)N1C[C@@H](C)N[C@@H](C)C1 [Example 34, 2-((R)-1-((3S,5R)-3,5-dimethylpiperazin-1-yl)butyl)-3-ethylquinazolin-4(3H)-one] | > 6.30 | < 6.30
 |  | CCC[C@H](c1nc2ccc(O)cc2c(=O)n1CC)N1C[C@@H](C)N[C@@H](C)C1 [Example 35, 2-((R)-1-((3S,5R)-3,5-Dimethylpiperazin-1-yl)butyl)-3-ethyl-6-hydroxyquinazolin-4(3H)-one] | > 6.30 | < 6.30
 |  | CCC[C@@H](c1nc2ccc(O)cc2c(=O)n1CC)N1C[C@@H](C)N[C@@H](C)C1 [Example 36, 2-((S)-1-((3S,5R)-3,5-dimethylpiperazin-1-yl)butyl)-3-ethyl-6-hydroxyquinazolin-4(3H)-one] | 5.30 to 6.30 | < 6.30
 |  | CCC[C@@H](c1nc2c(F)cc(OC)cc2c(=O)n1CC)N1CCNCC1 [Example 37, (S)-3-Ethyl-8-fluoro-6-methoxy-2-(1-(piperazin-1-yl)butyl)quinazolin-4(3H)-one] | < 5.30 | < 6.30

SMILES | pKi ([1]; read-out: α2δ-1 binding) | pKi (Human μ-opioid receptor; read-out: μ-binding) | pKi [1] | pKi (Human μ-opioid receptor)
CCCC(c1nc2c(Br)cccc2c(=O)n1CC)N1C[C@@H](C)N[C@@H](C)C1 (stereo partly drawn) [Example 13, 8-bromo-2-(1-((3S,5R)-3,5-dimethylpiperazin-1-yl)butyl)-3-ethylquinazolin-4(3H)-one] |  | < 6.30 | < 5.30 | 
CCC[C@@H](c1nc2ccccc2c(=O)n1CC)N1C[C@@H](C)N[C@@H](C)C1 [Example 33, 2-((S)-1-((3S,5R)-3,5-Dimethylpiperazin-1-yl)butyl)-3-ethylquinazolin-4(3H)-one] | 5.30 to 6.30 |  |  | 
